Assay results published in patent US20240270762A1, “PENICILLIN-BINDING PROTEIN INHIBITORS” (priority 2021, published 2024).
Converted amounts (≈) assume the structure as drawn.

Tests used:
[1] = test system: N. gonorrhoeae MS11; assay: Liquid broth MIC in Fastidious broth; conditions: Neisseria gonorrhoeae, MS11, read-out: Minimum Inhibitory Concentration (MIC), N. gonorrhoeae MS11
[2] = test system: N. gonorrhoeae WHO G; assay: Liquid broth MIC in Fastidious broth; conditions: Neisseria gonorrhoeae, read-out: Minimum Inhibitory Concentration (MIC), N. gonorrhoeae WHO G
[3] = test system: N. gonorrhoeae WHO Q; assay: Liquid broth MIC in Fastidious broth; conditions: Neisseria gonorrhoeae, read-out: Minimum Inhibitory Concentration (MIC), N. gonorrhoeae WHO Q
[4] = biological target: T1, PBP3 from Acinetobacter baumannii (ATCC 19606) (Acinetobacter baumannii, UniProt A0ABX6CK25); assay: Bocillin-FL fluorescence polarization competition binding, A. baumannii PBP3; conditions: fluorescence polarization competition binding assay using Bocillin-FL; read-out: A. baumannii PBP3 Potency
T1 sequence (A0ABX6CK25 64-610): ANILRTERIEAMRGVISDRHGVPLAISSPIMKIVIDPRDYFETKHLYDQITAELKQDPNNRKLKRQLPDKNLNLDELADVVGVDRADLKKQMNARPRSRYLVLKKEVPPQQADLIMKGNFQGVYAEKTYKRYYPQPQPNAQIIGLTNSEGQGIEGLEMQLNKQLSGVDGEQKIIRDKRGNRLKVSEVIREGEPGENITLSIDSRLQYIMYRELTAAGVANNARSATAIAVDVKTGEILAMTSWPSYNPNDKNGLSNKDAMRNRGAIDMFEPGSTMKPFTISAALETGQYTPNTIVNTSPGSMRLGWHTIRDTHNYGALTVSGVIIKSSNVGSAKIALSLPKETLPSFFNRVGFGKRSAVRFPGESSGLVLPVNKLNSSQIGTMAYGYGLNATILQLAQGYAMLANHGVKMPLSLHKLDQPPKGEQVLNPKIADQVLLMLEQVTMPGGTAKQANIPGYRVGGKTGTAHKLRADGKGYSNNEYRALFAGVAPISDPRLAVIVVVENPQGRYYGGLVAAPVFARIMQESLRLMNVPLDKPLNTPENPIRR
Summary of the method: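 Purified PBPs pre-incubated with inhibitor (E. coli PBP3 1.5 μM, 30 min; P. aeruginosa PBP3 0.75 μM, A. baumannii PBP1a 1 μM and PBP3 0.2 μM, 15 min), then Bocillin-FL 0.1 μM (0.05 μM for PBP1a) added; FP read up to 60 min. EC50 = concentration halving bound Bocillin-FL.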

[5] = test system: P. aeruginosa ATCC 27853; assay: microbe, parasite or virus in culture; type: cell-based; conditions: Pseudomonas aeruginosa, ATCC27853, read-out: Minimum inhibitory concentration, P. aeruginosa ATCC 27853
[6] = test system: P. aeruginosa CDC-0095; assay: microbe, parasite or virus in culture; type: cell-based; conditions: Pseudomonas aeruginosa, CDC0095, read-out: Minimum inhibitory concentration, P. aeruginosa CDC-0095
[7] = test system: A. baumannii 1258916; assay: microbe, parasite or virus in culture; type: cell-based, Acinetobacter baumannii; conditions: Acinetobacter baumannii, 1258916, read-out: MIC, A. baumannii 1258916
[8] = test system: A. baumannii CDC-0033; assay: microbe, parasite or virus in culture; type: cell-based; conditions: Acinetobacter baumannii, CDC0033, read-out: MIC, A. baumannii CDC-0033
[9] = test system: A. baumannii CDC-0036; assay: microbe, parasite or virus in culture; type: cell-based; conditions: Acinetobacter baumannii, CDC0036, read-out: MIC, A. baumannii CDC-0036
[10] = test system: B. thailandensis ATCC 700388; assay: microbe, parasite or virus in culture; type: cell-based; conditions: Burkholderia thailandensis, ATCC700388, read-out: Minimum inhibitory concentration (MIC), B. thailandensis ATCC 700388
[11] = test system: P. aeruginosa CDC-0110; assay: microbe, parasite or virus in culture; type: cell-based; conditions: Pseudomonas aeruginosa, CDC0110, read-out: Minimum inhibitory concentration, P. aeruginosa CDC-0110

Row | SMILES | MIC [1] | MIC [2] | MIC [3] | IC50 [4] | MIC [5] | MIC [6] | MIC [7] | MIC [8] | MIC [9] | MIC [10] | MIC [11]
1 | O=C(O)c1cccc2c1OB(O)[C@@H](NC(=O)[C@@H](NC(=O)c1cnc3n(c1=O)CCS3)c1ccc(P(=O)(O)O)cc1)C2 (single isomer, unassigned) [Example 196] | 16 to 32 µg/mL (≈ 26.7 to 53.3 µM) | 16 to 32 µg/mL (≈ 26.7 to 53.3 µM) | 16 to 32 µg/mL (≈ 26.7 to 53.3 µM) |  |  |  |  |  |  |  | 
2 | O=C(O)c1cccc2c1OB(O)[C@@H](NC(=O)[C@H](NC(=O)c1cnc3n(c1=O)CCS3)c1ccc(P(=O)(O)O)cc1)C2 (single isomer, unassigned) [Example 197] | 16 to 32 µg/mL (≈ 26.7 to 53.3 µM) | 4 to 8 µg/mL (≈ 6.66 to 13.3 µM) | 16 to 32 µg/mL (≈ 26.7 to 53.3 µM) |  |  |  |  |  |  |  | 
3 | CCN1CCN(C(=O)NC(C(=O)N[C@H]2Cc3cccc(C(=O)O)c3OB2O)c2ccc(P(=O)(O)O)c(F)c2O)C(=O)C1=O (stereo partly drawn) [Example 198, (3R)-3-(2-(4-ethyl-2,3-dioxopiperazine-1-carboxamido)-2-(3-fluoro-2-hydroxy-4-phosphonophenyl)acetamido)-2-hydroxy-3,4-dihydro-2H-benzo[e][1,2]oxaborinine-8-carboxylic acid] | < 1 µg/mL | < 1 µg/mL | 1 to 2 µg/mL (≈ 1.61 to 3.21 µM) |  |  |  |  |  |  |  | 
4 | CN(CCN1CCN(C(=O)N[C@@H](C(=O)N[C@H]2Cc3ccc(F)c(C(=O)O)c3OB2O)c2cc(F)c(O)c(O)c2Cl)C(=O)C1=O)Cc1nccs1 [Example 200, (R)-3-((R)-2-(2-chloro-5-fluoro-3,4-dihydroxyphenyl)-2-(4-(2-(methyl(thiazol-2-ylmethyl)amino)ethyl)-2,3-dioxopiperazine-1-carboxamido)acetamido)-7-fluoro-2-hydroxy-3,4-dihydro-2H-benzo[e][1,2]oxaborinine-8-carboxylic acid] | 16 to 32 µg/mL (≈ 21.7 to 43.4 µM) | 4 to 8 µg/mL (≈ 5.43 to 10.9 µM) | 16 to 32 µg/mL (≈ 21.7 to 43.4 µM) | < 10 µM | < 1 µg/mL | < 1 µg/mL | < 1 µg/mL | 2 to 4 µg/mL (≈ 2.71 to 5.43 µM) | 2 to 4 µg/mL (≈ 2.71 to 5.43 µM) | < 1 µg/mL | < 1 µg/mL
5 | CN(CCN1CCN(C(=O)N[C@@H](C(=O)N[C@H]2Cc3ccc(F)c(C(=O)O)c3OB2O)c2cc(F)c(O)c(O)c2Cl)C(=O)C1=O)Cc1cccnc1 [Example 201, (R)-3-((R)-2-(2-chloro-5-fluoro-3,4-dihydroxyphenyl)-2-(4-(2-(methyl(pyridin-3-ylmethyl)amino)ethyl)-2,3-dioxopiperazine-1-carboxamido)acetamido)-7-fluoro-2-hydroxy-3,4-dihydro-2H-benzo[e][1,2]oxaborinine-8-carboxylic acid] | 16 to 32 µg/mL (≈ 21.9 to 43.8 µM) | 4 to 8 µg/mL (≈ 5.47 to 10.9 µM) | 16 to 32 µg/mL (≈ 21.9 to 43.8 µM) | < 10 µM | < 1 µg/mL | < 1 µg/mL | < 1 µg/mL | 2 to 4 µg/mL (≈ 2.74 to 5.47 µM) | 2 to 4 µg/mL (≈ 2.74 to 5.47 µM) | < 1 µg/mL | < 1 µg/mL
6 | O=C(NCCCN1CCN(C(=O)NC(C(=O)N[C@H]2Cc3ccc(F)c(C(=O)O)c3OB2O)c2cc(F)c(O)c(O)c2Cl)C(=O)C1=O)c1ccccc1 (stereo partly drawn) [Example 202, (3R)-3-(2-(4-(3-benzamidopropyl)-2,3-dioxopiperazine-1-carboxamido)-2-(2-chloro-5-fluoro-3,4-dihydroxyphenyl)acetamido)-7-fluoro-2-hydroxy-3,4-dihydro-2H-benzo[e][1,2]oxaborinine-8-carboxylic acid] | 16 to 32 µg/mL (≈ 21.5 to 43 µM) | 16 to 32 µg/mL (≈ 21.5 to 43 µM) | > 64 µg/mL | < 10 µM | 2 to 4 µg/mL (≈ 2.69 to 5.38 µM) | 2 to 4 µg/mL (≈ 2.69 to 5.38 µM) | < 1 µg/mL | 8 to 16 µg/mL (≈ 10.8 to 21.5 µM) | 2 to 4 µg/mL (≈ 2.69 to 5.38 µM) | 8 to 16 µg/mL (≈ 10.8 to 21.5 µM) | < 1 µg/mL
7 | O=C(NCCCN1CCN(C(=O)NC(C(=O)N[C@H]2Cc3ccc(F)c(C(=O)O)c3OB2O)c2cc(F)c(O)c(O)c2Cl)C(=O)C1=O)c1ccc(O)cc1 (stereo partly drawn) [Example 203, (3R)-3-(2-(2-chloro-5-fluoro-3,4-dihydroxyphenyl)-2-(4-(3-(4-hydroxybenzamido)propyl)-2,3-dioxopiperazine-1-carboxamido)acetamido)-7-fluoro-2-hydroxy-3,4-dihydro-2H-benzo[e][1,2]oxaborinine-8-carboxylic acid] | 4 to 8 µg/mL (≈ 5.26 to 10.5 µM) | 4 to 8 µg/mL (≈ 5.26 to 10.5 µM) | 16 to 32 µg/mL (≈ 21.1 to 42.1 µM) | < 10 µM | < 1 µg/mL | 2 to 4 µg/mL (≈ 2.63 to 5.26 µM) | < 1 µg/mL | 2 to 4 µg/mL (≈ 2.63 to 5.26 µM) | < 1 µg/mL | < 1 µg/mL | < 1 µg/mL
8 | O=C(NCCCN1CCN(C(=O)NC(C(=O)N[C@H]2Cc3ccc(F)c(C(=O)O)c3OB2O)c2cc(F)c(O)c(O)c2Cl)C(=O)C1=O)c1cccc(O)c1 (stereo partly drawn) [Example 204, (3R)-3-(2-(2-chloro-5-fluoro-3,4-dihydroxyphenyl)-2-(4-(3-(3-hydroxybenzamido)propyl)-2,3-dioxopiperazine-1-carboxamido)acetamido)-7-fluoro-2-hydroxy-3,4-dihydro-2H-benzo[e][1,2]oxaborinine-8-carboxylic acid] | 16 to 32 µg/mL (≈ 21.1 to 42.1 µM) | 4 to 8 µg/mL (≈ 5.26 to 10.5 µM) | > 64 µg/mL | < 10 µM | < 1 µg/mL | < 1 µg/mL | < 1 µg/mL | 2 to 4 µg/mL (≈ 2.63 to 5.26 µM) | 2 to 4 µg/mL (≈ 2.63 to 5.26 µM) | 2 to 4 µg/mL (≈ 2.63 to 5.26 µM) | < 1 µg/mL
9 | O=C(NCCCN1CCN(C(=O)NC(C(=O)N[C@H]2Cc3ccc(F)c(C(=O)O)c3OB2O)c2cc(F)c(O)c(O)c2Cl)C(=O)C1=O)c1ccncc1 (stereo partly drawn) [Example 205, (3R)-3-(2-(2-chloro-5-fluoro-3,4-dihydroxyphenyl)-2-(4-(3-(isonicotinamido)propyl)-2,3-dioxopiperazine-1-carboxamido)acetamido)-7-fluoro-2-hydroxy-3,4-dihydro-2H-benzo[e][1,2]oxaborinine-8-carboxylic acid] | 4 to 8 µg/mL (≈ 5.37 to 10.7 µM) | 4 to 8 µg/mL (≈ 5.37 to 10.7 µM) | 16 to 32 µg/mL (≈ 21.5 to 43 µM) | < 10 µM | < 1 µg/mL | < 1 µg/mL | < 1 µg/mL | 2 to 4 µg/mL (≈ 2.69 to 5.37 µM) | < 1 µg/mL | < 1 µg/mL | < 1 µg/mL
10 | O=C(CN1CCN(C(=O)NC(C(=O)N[C@H]2Cc3ccc(F)c(C(=O)O)c3OB2O)c2cc(F)c(O)c(O)c2Cl)C(=O)C1=O)NCc1ccc(O)cc1 (stereo partly drawn) [Example 236, (3R)-3-(2-(2-chloro-5-fluoro-3,4-dihydroxyphenyl)-2-(4-(2-((4-hydroxybenzyl)amino)-2-oxoethyl)-2,3-dioxopiperazine-1-carboxamido)acetamido)-7-fluoro-2-hydroxy-3,4-dihydro-2H-benzo[e][1,2]oxaborinine-8-carboxylic acid] |  |  |  | < 10 µM |  |  | 2 to 4 µg/mL (≈ 2.68 to 5.36 µM) | 8 to 16 µg/mL (≈ 10.7 to 21.5 µM) | 8 to 16 µg/mL (≈ 10.7 to 21.5 µM) | 8 to 16 µg/mL (≈ 10.7 to 21.5 µM) | 
